The text below walks through data of patent US11559538B2, “Substituted 1,2-oxaborolan-2-ols as PDE4 inhibitors” (Pfizer Inc., priority 2018, dated 2023).

The term IC50 denotes the concentration needed to halve the response being measured.

Read-outs that look alike come from different tables or passages of the source.

One experiment relates to IL-4. Put plainly: Cytokine assay: IL-4 release from PHA-L stimulated human PBMCs. It is filed as cell-based. The note with it: read-out: IL4 IC50. Put shortly: (§1)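 Thawed cryopreserved human PBMCs (~250,000 cells/well) in RPMI 1640 with 10% heat-inactivated FBS were treated with compound for ~10 min at room temperature, then stimulated with 3.5 μg/mL PHA-L (final) for 48 h at 37° C. Supernatant cytokine was measured by HTRF, and IC50 was derived by four-parameter logistic fit.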

Another experiment relates to IL-13. The experiment is described as follows: Cytokine assay: IL-13 release from PHA-L stimulated human PBMCs. It is filed as cell-based. The settings on record: read-out: IL13 IC50. The gist of the method:
as §1

The target of experiment [1] is PDE4B (aa 152-484, Uniprot ID Q07343) (Homo sapiens (Human), UniProt Q07343). The experiment is described as follows: PDE4 SPA assay (scintillation proximity assay). In kind it is biochemical. The note with it: read-out: PDE4B2 IC50. The gist of the method: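 PDE4B (aa 152-484, ~81.6 pM) preincubated ~10 min with compound, then 1 μM ³H/unlabeled cAMP added in Tris pH 7.5, 1.3 mM MgCl2, 0.004% Brij 35, ~2% DMSO; 30 min at RT. Product captured on SPA beads and counted; IC50 by four-parameter logistic fit.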
(In a scintillation proximity assay essentially only radioactivity close to the scintillant gives light.)

The subject of another experiment is IFNγ. The experiment is described as follows: Cytokine assay: IFNγ release from PHA-L stimulated human PBMCs. In kind it is cell-based. The gist of the method: as §1

Chain of PDE4B (aa 152-484, Uniprot ID Q07343) (Q07343 324-656): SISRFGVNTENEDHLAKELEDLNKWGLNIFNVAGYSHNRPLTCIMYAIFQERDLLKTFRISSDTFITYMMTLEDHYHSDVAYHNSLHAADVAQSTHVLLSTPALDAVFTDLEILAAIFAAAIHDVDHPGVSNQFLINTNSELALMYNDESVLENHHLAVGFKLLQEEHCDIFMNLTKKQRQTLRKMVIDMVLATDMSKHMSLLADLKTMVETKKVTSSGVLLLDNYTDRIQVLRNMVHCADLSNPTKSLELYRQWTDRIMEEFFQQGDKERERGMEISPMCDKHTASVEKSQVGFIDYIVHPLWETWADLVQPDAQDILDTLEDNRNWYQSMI

For `CCCOc1cc(-c2ccc(F)c(C3COB(O)C3)n2)ccc1OC` (single isomer, unassigned; enantiomer 1) [Example 230, 4-(3-fluoro-6-(4-methoxy-3-propoxyphenyl)pyridin-2-yl)-1,2-oxaborolan-2-ol, enantiomer 1], the IC50 worked out at 141 nM in the experiment on IL-4 (Homo sapiens, PBMC); 2780 nM in the experiment on IL-13 (Homo sapiens, PBMC); 17.1 nM in experiment [1]; 26.5 nM in the experiment with IFNγ (Homo sapiens, PBMC).

`CCCOc1nc(-c2cc(C3COB(O)C3)cnc2C)ccc1OC` (single isomer, unassigned; enantiomer 1) [Example 231, (−) 4-(5-methoxy-2′-methyl-6-propoxy-[2,3′-bipyridin]-5′-yl)-1,2-oxaborolan-2-ol, enantiomer 1]: the IC50 was determined as 1.25 nM with IL-4 (Homo sapiens, PBMC); 2950 nM in the experiment with IL-13 (Homo sapiens, PBMC); 1.98 nM in experiment [1]; 1.72 nM with IFNγ (Homo sapiens, PBMC).

In the case of `CCCOc1cc(-c2nc(CO)cc(C3COB(O)C3)n2)c(F)cc1OC` (single isomer, unassigned; enantiomer 2) [Example 154, (−) 4-(2-(2-fluoro-4-methoxy-5-propoxyphenyl)-6-(hydroxymethyl)pyrimidin-4-yl)-1,2-oxaborolan-2-ol, enantiomer 2], the IC50 with IL-4 (Homo sapiens, PBMC) was 31.4 nM; in the experiment on IL-13 (Homo sapiens, PBMC) it was 893 nM; in experiment [1] it was 14.1 nM; in the experiment on IFNγ (Homo sapiens, PBMC), 15.2 nM.

With `CCOc1cc(-c2cncc(C3COB(O)C3)c2)cc(Cl)c1OC` (single isomer, unassigned; enantiomer 2) [Example 173, 4-(5-(3-chloro-5-ethoxy-4-methoxyphenyl)pyridin-3-yl)-1,2-oxaborolan-2-ol, enantiomer 2], the IC50 with IL-4 is 77.1 nM; in the experiment on IL-13 it was 1130 nM; in experiment [1], 10 nM; with IFNγ, 30.2 nM.

On to `COc1cc(-c2ccc(OC)c(OC3CCCC3)c2)nc(C2COB(O)C2)n1` (single isomer, unassigned; enantiomer 2) [Example 176, 4-(4-(3-(cyclopentyloxy)-4-methoxyphenyl)-6-methoxypyrimidin-2-yl)-1,2-oxaborolan-2-ol, enantiomer 2], for which the IC50 with IL-4 (Homo sapiens, PBMC) is 6.51 nM; in the experiment with IL-13 (Homo sapiens, PBMC) it was 1140 nM; in experiment [1] it was 5.51 nM; in the experiment on IFNγ (Homo sapiens, PBMC) it was 2.98 nM.

`COc1ccc(-c2nc(C3COB(O)C3)ns2)cc1OC1CC1` (single isomer, unassigned; enantiomer 2) [Example 181, (−) 4-(5-(3-cyclopropoxy-4-methoxyphenyl)-1,2,4-thiadiazol-3-yl)-1,2-oxaborolan-2-ol, enantiomer 2]: the IC50 with IL-4 (Homo sapiens, PBMC) was 2.23 nM; with IL-13 (Homo sapiens, PBMC), 1300 nM; in experiment [1], 0.68 nM; with IFNγ (Homo sapiens, PBMC), 3.17 nM.

On to `CCOc1cc(-c2nc(OC)cc(C3COB(O)C3)n2)ccc1OC` (single isomer, unassigned; enantiomer 2) [Example 186, (−) 4-(2-(3-ethoxy-4-methoxyphenyl)-6-methoxypyrimidin-4-yl)-1,2-oxaborolan-2-ol, enantiomer 2], for which the IC50 in the experiment with IL-4 (Homo sapiens, PBMC) turned out to be 31.4 nM; in the experiment with IL-13 (Homo sapiens, PBMC), 1400 nM; in experiment [1], 4.43 nM; in the experiment with IFNγ (Homo sapiens, PBMC), 5.13 nM.

As to `CCOc1cc(-c2cncc(C3COB(O)C3)c2C)ccc1OC` (single isomer, unassigned; enantiomer 2) [Example 189, 4-(5-(3-ethoxy-4-methoxyphenyl)-4-methylpyridin-3-yl)-1,2-oxaborolan-2-ol, enantiomer 2], the IC50 with IL-4 amounted to 7.72 nM; with IL-13, 1460 nM; in experiment [1] it was 2.61 nM; with IFNγ (Homo sapiens, PBMC) it was 1.46 nM.

Consider `COc1ccc(-c2cncc(C3COB(O)C3)c2)cc1OC(C)C` (single isomer, unassigned; enantiomer 2) [Example 190, 4-(5-(3-isopropoxy-4-methoxyphenyl)pyridin-3-yl)-1,2-oxaborolan-2-ol, enantiomer 2], for which the IC50 was found to be 40.3 nM in the experiment on IL-4, 1480 nM in the experiment on IL-13, 1.43 nM in experiment [1] and 5.01 nM with IFNγ.

On to `CCOc1c(OC)ccc(-c2cccc(C3COB(O)C3)c2)c1C#N` (single isomer, unassigned; enantiomer 2) [Example 192, 3-ethoxy-3′-(2-hydroxy-1,2-oxaborolan-4-yl)-4-methoxy-[1,1′-biphenyl]-2-carbonitrile, enantiomer 2], for which the IC50 with IL-4 (Homo sapiens, PBMC) was 14.6 nM; in the experiment with IL-13 (Homo sapiens, PBMC) it was 1500 nM; in experiment [1], 2.15 nM; with IFNγ (Homo sapiens, PBMC), 5.43 nM.

Consider `CCCOc1nc(-c2cncc(C3COB(O)C3)c2)c(F)cc1OC` (single isomer, unassigned; enantiomer 2) [Example 208, (+) 4-(3-fluoro-5-methoxy-6-propoxy-[2,3′-bipyridin]-5′-yl)-1,2-oxaborolan-2-ol, enantiomer 2], for which the IC50 in the experiment with IL-4 was determined as 4.06 nM; in the experiment on IL-13, 1800 nM; in experiment [1], 0.22 nM; with IFNγ, 1.98 nM.

Regarding `COc1ccc(-c2cc(C3COB(O)C3)ccn2)cc1OC1CCCC1` (single isomer, unassigned; enantiomer 2) [Example 211, 4-(2-(3-(cyclopentyloxy)-4-methoxyphenyl)pyridin-4-yl)-1,2-oxaborolan-2-ol, enantiomer 2], the IC50 in the experiment on IL-4 (Homo sapiens, PBMC) was found to be 27.8 nM; in the experiment on IL-13 (Homo sapiens, PBMC) it was 1840 nM; in experiment [1], 2.95 nM; in the experiment on IFNγ (Homo sapiens, PBMC), 1.83 nM.

Consider `CCOc1cc(-c2cncc(C3COB(O)C3)c2)cc(F)c1OC` (single isomer, unassigned; enantiomer 2) [Example 214, 4-(5-(3-ethoxy-5-fluoro-4-methoxyphenyl)pyridin-3-yl)-1,2-oxaborolan-2-ol, enantiomer 2], for which the IC50 was 20.7 nM in the experiment on IL-4, 2000 nM in the experiment with IL-13, 4.92 nM in experiment [1] and 13.7 nM in the experiment on IFNγ.

Turning to `COc1ccc(-c2cncc(C3COB(O)C3)c2)cc1OC` (single isomer, unassigned; enantiomer 2) [Example 221, 4-(5-(3,4-dimethoxyphenyl)pyridin-3-yl)-1,2-oxaborolan-2-ol, enantiomer 2], the IC50 was determined as 47.4 nM in the experiment with IL-4, 2430 nM in the experiment with IL-13, 2.21 nM in experiment [1] and 9.35 nM in the experiment with IFNγ.

In the case of `CCCOc1cc(-c2nc(OC)cc(C3COB(O)C3)n2)ccc1OC` (single isomer, unassigned; enantiomer 2) [Example 225, (−) 4-(6-methoxy-2-(4-methoxy-3-propoxphenyl)pyrimidin-4-yl)-1,2-oxaborolan-2-ol, enantiomer 2], the IC50 in the experiment on IL-4 (Homo sapiens, PBMC) stood at 21.2 nM; in the experiment on IL-13 (Homo sapiens, PBMC) it was 2380 nM; in experiment [1], 3.79 nM; with IFNγ (Homo sapiens, PBMC), 4.36 nM.

As to `COc1ccc(-c2cncc(C3COB(O)C3)c2)cc1OCCO` (single isomer, unassigned; enantiomer 2) [Example 228, (+) 4-(5-(3-(2-hydroxyethoxy)-4-methoxyphenyl)pyridin-3-yl)-1,2-oxaborolan-2-ol, enantiomer 2], the IC50 in the experiment with IL-4 came to 7.78 nM; in the experiment with IL-13 it was 2570 nM; in experiment [1], 6.32 nM; in the experiment on IFNγ, 14.2 nM.

On to `CCOc1cc(-c2cncc([C@H]3COB(O)C3)c2)ccc1OC` [Example 2, (S)-4-(5-(3-ethoxy-4-methoxyphenyl)pyridin-3-yl)-1,2-oxaborolan-2-ol], for which the IC50 with IL-4 (Homo sapiens, PBMC) was 210 nM; with IL-13 (Homo sapiens, PBMC) it was 1350 nM; in experiment [1], 0.67 nM; with IFNγ (Homo sapiens, PBMC), 2.73 nM.

In the case of `CCOc1cc(-c2cncc([C@@H]3COB(O)C3)c2)ccc1OC` [Example 3, (R)-4-(5-(3-ethoxy-4-methoxyphenyl)pyridin-3-yl)-1,2-oxaborolan-2-ol], the IC50 with IL-4 (Homo sapiens, PBMC) stood at 3.54 nM; in the experiment on IL-13 (Homo sapiens, PBMC) it was 165 nM; in experiment [1] it was 1.14 nM; in the experiment on IFNγ (Homo sapiens, PBMC), 0.7 nM.

Turning to `CCCOc1cc(-c2cncc([C@H]3COB(O)C3)c2)ccc1OC` [Example 5, (S)-4-(5-(4-methoxy-3-propoxyphenyl)pyridin-3-yl)-1,2-oxaborolan-2-ol], the IC50 was 36.3 nM in the experiment with IL-4 (Homo sapiens, PBMC); 2390 nM in the experiment on IL-13 (Homo sapiens, PBMC); 0.93 nM in experiment [1]; 4.04 nM in the experiment with IFNγ (Homo sapiens, PBMC).

In the case of `CCCOc1cc(-c2cncc(C3=CB(O)OC3)c2)ccc1OC` [Example 25, 4-(5-(4-methoxy-3-propoxyphenyl)pyridin-3-yl)-1,2-oxaborol-2(5H)-ol], the IC50 with IL-4 (Homo sapiens, PBMC) was found to be 67.8 nM; in the experiment on IL-13 (Homo sapiens, PBMC) it was 2320 nM; in experiment [1], 2.4 nM; in the experiment on IFNγ (Homo sapiens, PBMC), 9.17 nM.

Regarding `CCCOc1cc(-c2cccc(C3CCOB(O)C3)n2)ccc1OC` (centres unmarked) [Example 26, 4-(6-(4-methoxy-3-propoxyphenyl)pyridin-2-yl)-1,2-oxaborinan-2-ol], the IC50 with IL-4 (Homo sapiens, PBMC) is 1670 nM; in the experiment on IL-13 (Homo sapiens, PBMC) it was 10000 nM; in experiment [1] it was 399 nM; with IFNγ (Homo sapiens, PBMC), 3300 nM.

Consider `CCCOc1cc(-c2cccc(C3COB(O)C3C)n2)ccc1OC` (centres unmarked) [Example 27, 4-(6-(4-methoxy-3-propoxyphenyl)pyridin-2-yl)-3-methyl-1,2-oxaborolan-2-ol], for which the IC50 with IL-4 (Homo sapiens, PBMC) is 3790 nM; with IL-13 (Homo sapiens, PBMC), 10000 nM; in experiment [1] it was 73.4 nM; in the experiment on IFNγ (Homo sapiens, PBMC), 209 nM.

As for `CCCOc1cc(-c2cccc(C3=C(C)B(O)OC3)n2)ccc1OC` [Example 28, 4-(6-(4-methoxy-3-propoxyphenyl)pyridin-2-yl)-3-methyl-1,2-oxaborol-2(5H)-ol], the IC50 in the experiment on IL-4 (Homo sapiens, PBMC) turned out to be 1040 nM; with IL-13 (Homo sapiens, PBMC), 8010 nM; in experiment [1], 10.8 nM; in the experiment on IFNγ (Homo sapiens, PBMC), 201 nM.
